Data taken from patent US20080200454A1, “CARBON-LINKED TETRAHYDRO-PYRAZOLO-PYRIDINE MODULATORS OF CATHEPSIN S” (priority 2007, published 2008).
pIC50: −log10 of the molar value. Read-outs that look alike come from different tables or passages of the source.

Target: Recombinant human cathepsin S (CatS) (Homo sapiens, UniProt P25774)
Assay: Recombinant human cathepsin S (CatS) inhibition assay, fluorogenic substrate Z-Valine-Valine-Arginine-AMC;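 further: Baculovirus-expressed CatS in pH 5.0 sodium acetate buffer with DTT and NaCl, fluorescence read each minute over 20 min, inhibition derived from rate slope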

Sequence of Recombinant human cathepsin S (CatS) (P25774 115-331): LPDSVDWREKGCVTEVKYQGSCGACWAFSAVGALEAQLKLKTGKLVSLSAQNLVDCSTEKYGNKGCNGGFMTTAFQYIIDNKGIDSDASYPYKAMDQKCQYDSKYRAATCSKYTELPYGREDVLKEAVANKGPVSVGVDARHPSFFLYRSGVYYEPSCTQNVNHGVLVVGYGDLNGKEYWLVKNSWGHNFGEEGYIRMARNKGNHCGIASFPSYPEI

Row | pIC50 | Compound | pIC50 (CatS IC50)
1 |  | CS(=O)(=O)N1CCc2c(c(-c3ccc(Cl)c(C#Cc4ccc5c(c4)CNCC5)c3)nn2CCCN2CCCCC2)C1 [Example 381, 7-({2-Chloro-5-[5-(methylsulfonyl)-1-(3-piperidin-1-ylpropyl)-4,5,6,7-tetrahydro-1H-pyrazolo[4,3-c]pyridin-3-yl]phenyl}ethynyl)-1,2,3,4-tetrahydroisoquinoline] | 7.00
2 |  | CS(=O)(=O)N1CCc2c(c(-c3ccc(Cl)c(C#Cc4ccc(CNCc5ccc(Cl)cc5)cc4)c3)nn2CCCN2CC[C@H](O)C2)C1 [Example 382, (3S)-1-{3-[3-(4-Chloro-3-{[4-({[(4-chlorophenyl)methyl]amino}methyl)phenyl]ethynyl}phenyl)-5-(methylsulfonyl)-4,5,6,7-tetrahydro-1H-pyrazolo[4,3-c]pyridin-1-yl]propyl}pyrrolidin-3-ol] | 6.96
3 |  | CS(=O)(=O)N1CCc2c(c(-c3ccc(Cl)c(C#Cc4ccc(CNCc5ccc(Cl)cc5)cc4)c3)nn2CCCN2CC[C@@H](O)C2)C1 [Example 383, (3R)-1-{3-[3-(4-Chloro-3-{[4-({[(4-chlorophenyl)methyl]amino}methyl)phenyl]ethynyl}phenyl)-5-(methylsulfonyl)-4,5,6,7-tetrahydro-1H-pyrazolo[4,3-c]pyridin-1-yl]propyl}pyrrolidin-3-ol] | 6.92
4 | 5.55 | CC(C)(C)OC(=O)NCc1ccccc1C#Cc1cc(-c2nn(CCCN3CCOCC3)c3c2CN(S(C)(=O)=O)CC3)ccc1Cl [Example 384, 1,1-Dimethylethyl {[2-({2-chloro-5-[5-(methylsulfonyl)-1-(3-morpholin-4-ylpropyl)-4,5,6,7-tetrahydro-1H-pyrazolo[4,3-c]pyridin-3-yl]phenyl}ethynyl)phenyl]methyl}carbamate] | 
5 |  | CS(=O)(=O)N1CCc2c(c(-c3ccc(Cl)c(C#Cc4ccccc4CN)c3)nn2CCCN2CCOCC2)C1 [Example 385, 1-[2-({2-Chloro-5-[5-(methylsulfonyl)-1-(3-morpholin-4-ylpropyl)-4,5,6,7-tetrahydro-1H-pyrazolo[4,3-c]pyridin-3-yl]phenyl}ethynyl)phenyl]methanamine] | 5.57
6 |  | CS(=O)(=O)N1CCc2c(c(-c3ccc(Cl)c(C#Cc4ccccc4CNCc4ccccc4)c3)nn2CCCN2CCOCC2)C1 [Example 386, 1-[2-({2-Chloro-5-[5-(methylsulfonyl)-1-(3-morpholin-4-ylpropyl)-4,5,6,7-tetrahydro-1H-pyrazolo[4,3-c]pyridin-3-yl]phenyl}ethynyl)phenyl]-N-(phenylmethyl)methanamine] | 6.11
7 |  | CS(=O)(=O)N1CCc2c(c(-c3ccc(Cl)c(C#Cc4ccc(CNCc5ccc(Cl)cc5)cc4)c3)nn2CCCN2CCN(C3CC3)CC2)C1 [Example 388, 1-{4-[(2-Chloro-5-{1-[3-(4-cyclopropylpiperazin-1-yl)propyl]-5-(methylsulfonyl)-4,5,6,7-tetrahydro-1H-pyrazolo[4,3-c]pyridin-3-yl}phenyl)ethynyl]phenyl}-N-[(4-chlorophenyl)methyl]methanamine] | 7.22
8 | 6.64 | CS(=O)(=O)N1CCc2c(c(-c3ccc(Cl)c(C#Cc4ccc(CNCc5ccc(Cl)cc5)cc4)c3)nn2CCCN2CCOC(CO)C2)C1 (stereo not drawn) [Example 389] | 
9 |  | CC(C)(C)OC(=O)N1CCCN(CCCn2nc(-c3ccc(Cl)c(C#Cc4ccc(CNCc5ccc(Cl)cc5)cc4)c3)c3c2CCN(S(C)(=O)=O)C3)CC1 [Example 390, 1,1-Dimethylethyl 4-{3-[3-(4-chloro-3-{[4-({[(4-chlorophenyl)methyl]amino}methyl)phenyl]ethynyl}phenyl)-5-(methylsulfonyl)-4,5,6,7-tetrahydro-1H-pyrazolo[4,3-c]pyridin-1-yl]propyl}-1,4-diazepane-1-carboxylate] | 6.82
10 |  | CS(=O)(=O)N1CCc2c(c(-c3ccc(Cl)c(C#Cc4ccc(CNCc5ccc(Cl)cc5)cc4)c3)nn2CCCN2CCCNCC2)C1 [Example 391, 1-{4-[(2-Chloro-5-{1-[3-(1,4-diazepan-1-yl)propyl]-5-(methylsulfonyl)-4,5,6,7-tetrahydro-1H-pyrazolo[4,3-c]pyridin-3-yl}phenyl)ethynyl]phenyl}-N-[(4-chlorophenyl)methyl]methanamine] | 6.59
11 |  | CC(C)(C)OC(=O)N1Cc2ccc(C#Cc3cc(-c4nn(CCCN5CCOCC5)c5c4CN(S(C)(=O)=O)CC5)ccc3Cl)cc2C1 [Example 392, 1,1-Dimethylethyl 5-({2-chloro-5-[5-(methylsulfonyl)-1-(3-morpholin-4-ylpropyl)-4,5,6,7-tetrahydro-1H-pyrazolo[4,3-c]pyridin-3-yl]phenyl}ethynyl)-1,3-dihydro-2H-isoindole-2-carboxylate] | 6.74
12 |  | CS(=O)(=O)N1CCc2c(c(-c3ccc(Cl)c(C#Cc4ccc5c(c4)CNC5)c3)nn2CCCN2CCOCC2)C1 [Example 393, 3-[4-Chloro-3-(2,3-dihydro-1H-isoindol-5-ylethynyl)phenyl]-5-(methylsulfonyl)-1-(3-morpholin-4-ylpropyl)-4,5,6,7-tetrahydro-1H-pyrazolo[4,3-c]pyridine] | 6.66
13 | 5.42 | CS(=O)(=O)N1CCc2c(c(-c3ccc(Cl)c(C#Cc4cnc5c(c4)CNCC5)c3)nn2CCCN2CCOCC2)C1 [Example 394, 3-({2-Chloro-5-[5-(methylsulfonyl)-1-(3-morpholin-4-ylpropyl)-4,5,6,7-tetrahydro-1H-pyrazolo[4,3-c]pyridin-3-yl]phenyl}ethynyl)-5,6,7,8-tetrahydro-1,6-naphthyridine] | 
14 | 7.70 | CS(=O)(=O)N1CCc2c(c(-c3ccc(Cl)c(CCc4ccc(CNCc5ccc(Cl)cc5)cc4)c3)nn2CCCN2CCN(c3ccccc3)CC2)C1 [Example 395, 1-{4-[2-(2-Chloro-5-{5-(methylsulfonyl)-1-[3-(4-phenylpiperazin-1-yl)propyl]-4,5,6,7-tetrahydro-1H-pyrazolo[4,3-c]pyridin-3-yl}phenyl)ethyl]phenyl}-N-[(4-chlorophenyl)methyl]methanamine] | 
15 | 6.64 | CS(=O)(=O)N1CCc2c(c(-c3ccc(Cl)c(C#Cc4ccc5c(c4)CN(C4CC4)CC5)c3)nn2CCCN2CCOCC2)C1 [Example 396, 7-({2-Chloro-5-[5-(methylsulfonyl)-1-(3-morpholin-4-ylpropyl)-4,5,6,7-tetrahydro-1H-pyrazolo[4,3-c]pyridin-3-yl]phenyl}ethynyl)-2-cyclopropyl-1,2,3,4-tetrahydroisoquinoline] | 
16 |  | CS(=O)(=O)N1CCc2c(c(-c3ccc(Cl)c(C#Cc4ccc(CNCc5ccc(Cl)cc5)cc4)c3)nn2CCCN2CCNC(=O)C2)C1 [Example 397, 4-{3-[3-(4-Chloro-3-{[4-({[(4-chlorophenyl)methyl]amino}methyl)phenyl]ethynyl}phenyl)-5-(methylsulfonyl)-4,5,6,7-tetrahydro-1H-pyrazolo[4,3-c]pyridin-1-yl]propyl}piperazin-2-one] | 6.29
17 |  | CS(=O)(=O)N1CCc2c(c(-c3ccc(Cl)c(C#Cc4ccc(CNCc5ccc(Cl)cc5)cc4)c3)nn2CCCN2CCS(=O)(=O)CC2)C1 [Example 398, 1-{4-[(2-Chloro-5-{1-[3-(1,1-dioxidothiomorpholin-4-yl)propyl]-5-(methylsulfonyl)-4,5,6,7-tetrahydro-1H-pyrazolo[4,3-c]pyridin-3-yl}phenyl)ethynyl]phenyl}-N-[(4-chlorophenyl)methyl]methanamine] | 6.42
18 |  | CS(=O)(=O)N1CCc2c(c(-c3ccc(Cl)c(C#Cc4ccc(CNCc5ccc(Cl)cc5)cc4)c3)nn2CCCN2CCCOCC2)C1 [Example 399, 1-{4-[(2-Chloro-5-{5-(methylsulfonyl)-1-[3-(1,4-oxazepan-4-yl)propyl]-4,5,6,7-tetrahydro-1H-pyrazolo[4,3-c]pyridin-3-yl}phenyl)ethynyl]phenyl}-N-[(4-chlorophenyl)methyl]methanamine] | 6.96
19 | 6.72 | CC(=O)N1CCc2c(c(-c3ccc(Cl)c(C#Cc4ccc(CNCc5ccc(Cl)cc5)cc4)c3)nn2CCCN2CCOC[C@@H]2C)C1 [Example 400, 1-(4-{[5-(5-Acetyl-1-{3-[(3S)-3-methylmorpholin-4-yl]propyl}-4,5,6,7-tetrahydro-1H-pyrazolo[4,3-c]pyridin-3-yl)-2-chlorophenyl]ethynyl}phenyl)-N-[(4-chlorophenyl)methyl]methanamine] | 
20 |  | C[C@H]1COCCN1CCCn1nc(-c2ccc(Cl)c(C#Cc3ccc(CNCc4ccc(Cl)cc4)cc3)c2)c2c1CCN(C(N)=O)C2 [Example 401, 3-(4-Chloro-3-{[4-({[(4-chlorophenyl)methyl]amino}methyl)phenyl]ethynyl}phenyl)-1-{3-[(3S)-3-methylmorpholin-4-yl]propyl}-1,4,6,7-tetrahydro-5H-pyrazolo[4,3-c]pyridine-5-carboxamide] | 6.96
21 |  | C[C@H]1COCCN1CCCn1nc(-c2ccc(Cl)c(C#Cc3ccc(CNCc4ccc(Cl)cc4)cc3)c2)c2c1CCN(C(=O)CO)C2 [Example 402, 2-[3-(4-Chloro-3-{[4-({[(4-chlorophenyl)methyl]amino}methyl)phenyl]ethynyl}phenyl)-1-{3-[(3S)-3-methylmorpholin-4-yl]propyl}-1,4,6,7-tetrahydro-5H-pyrazolo[4,3-c]pyridin-5-yl]-2-oxoethanol] | 6.82
22 | 5.07 | CS(=O)(=O)N1CCc2c(c(-c3ccc(Cl)c(C#Cc4nnc5n4CCNC5)c3)nn2CCCN2CCOCC2)C1 [Example 403, 3-({2-Chloro-5-[5-(methylsulfonyl)-1-(3-morpholin-4-ylpropyl)-4,5,6,7-tetrahydro-1H-pyrazolo[4,3-c]pyridin-3-yl]phenyl}ethynyl)-5,6,7,8-tetrahydro[1,2,4]triazolo[4,3-a]pyrazine] | 
23 |  | CS(=O)(=O)N1CCc2c(c(-c3ccc(Cl)c(C#Cc4ccc(CNCc5cccnc5)cc4)c3)nn2CCCN2CCOCC2)C1 [Example 404, 1-[4-({2-Chloro-5-[5-(methylsulfonyl)-1-(3-morpholin-4-ylpropyl)-4,5,6,7-tetrahydro-1H-pyrazolo[4,3-c]pyridin-3-yl]phenyl}ethynyl)phenyl]-N-(pyridin-3-ylmethyl)methanamine] | 6.43
24 |  | CS(=O)(=O)N1CCc2c(c(-c3ccc(Cl)c(C#Cc4ccc(CNCc5ccncc5)cc4)c3)nn2CCCN2CCOCC2)C1 [Example 405, 1-[4-({2-Chloro-5-[5-(methylsulfonyl)-1-(3-morpholin-4-ylpropyl)-4,5,6,7-tetrahydro-1H-pyrazolo[4,3-c]pyridin-3-yl]phenyl}ethynyl)phenyl]-N-(pyridin-4-ylmethyl)methanamine] | 6.54
